Reference: patent publication US12458609B2 (The General Hospital Corporation, priority 2018, dated 2025)

Assays:
[1] = in humans; cited from earlier work
rats sedated with DEX [2] = assay: LFP spectrogram and electromyogram analysis in rats sedated with DEX; format: in vivo; settings: infusion after DEX infusion; FIG. 3 bottom panel
From the text: Spectrograms were constructed from continuous LFP recordings from the prefrontal cortex of rats. In these figures, spectral power (dB) at a given frequency (Hz) is represented by color and plotted over time.

[3] = test system: rats anesthetized with ketamine; assay: Recovery of consciousness after ketamine anesthesia in rats; format: in vivo; settings: 8 rats, crossover; ketamine 50 mg/kg IV over 10 min; 5 min later dextroamphetamine 3 mg/kg IV over 2 min; saline mean 6.3 minutes; p<0.05
Procedure: A randomized, blinded, crossover design was used with 8 rats. After intravenous administration of ketamine (50 mg/kg IV) over 10 minutes, all rats became unconscious. […] The difference was statistically significant (p<0.05).

[4] = test system: rats under propofol and sevoflurane anesthesia; settings: Kenny et al., PLoS ONE 2015; cited from earlier work
rats sedated with DEX [5] = assay: Recovery of consciousness (righting reflex) in rats sedated with DEX; format: in vivo; settings: 8 rats, crossover; DEX 50 micrograms/kg IV over 10 min; 5 min later dextroamphetamine 3 mg/kg IV over 2 min; saline mean 92 minutes; p<0.01
From the text: A randomized, blinded, crossover design was used with 8 rats. […] This difference was statistically significant (p<0.01).

rat sedated with DEX = assay: Quadrant crossings in the cage after dexmedetomidine sedation (single rat); format: in vivo
Procedure: The data provided is from a single rat that underwent 3 experiments, with 3-4 days of rest between each session. FIG. 5 is a schematic of the experimental Design.
The rat received an intravenous infusion of dexmedetomidine (DEX, 50 mcg/kg) over 10 minutes, followed by a 5-minute rest period to switch medications. […] Note that 7.4 mg/kg of LDX is enzymatically cleaved to slowly release a total of 2.2 mg/kg of d-AMPH.
The cage was divided into 4 quadrants, and the number of times the rat crossed from one quadrant to another was recorded. Each data point represents the number of quadrant crossings in the cage during the preceding 15 minutes. […] By adjusting the relative doses of d-AMPH and LDX, a combination of these two drugs provided continuous, long-lasting reversal of DEX sedation, without the adverse side effects of administering a larger dose of d-AMPH, e.g., hyperactivity and large increases in heart rate and blood pressure.

Row | SMILES | half-life [1] | low-frequency LFP power, consciousness and EMG activity (rats sedated with DEX [2]) | mean time to recovery of consciousness after ketamine [3] | reversal of general anesthesia [4] | mean time to regain consciousness (rats sedated with DEX [5]) | reversal of DEX sedation (movement, quadrant crossings) (rat sedated with DEX; DEX 50 mcg/kg IV over 10 min, d-AMPH 0.8 mg/kg alone, 2-minute IV infusion, FIG. 6) | time after which re-sedation occurred (rat sedated with DEX; DEX 50 mcg/kg IV, d-AMPH 0.8 mg/kg IV alone)
1 | Cc1cccc([C@H](C)c2cnc[nH]2)c1C [DEX, Dexmedetomidine] | approximately 2 hours |  |  |  |  |  | 
2 | C[C@H](N)Cc1ccccc1 [dextroamphetamine] |  | rapidly decreased low-frequency LFP power, which coincided with return of consciousness (ROC) and increased EMG activity | 11.6 min | reverse propofol and sevoflurane anesthesia | 1.7 min | initially woke up and moved around | 30 min
